The target in the assay is T1, Ubiquitin carboxyl-terminal hydrolase 30 (Homo sapiens, UniProt Q70CQ3).
T1 sequence (Q70CQ3 whole entry): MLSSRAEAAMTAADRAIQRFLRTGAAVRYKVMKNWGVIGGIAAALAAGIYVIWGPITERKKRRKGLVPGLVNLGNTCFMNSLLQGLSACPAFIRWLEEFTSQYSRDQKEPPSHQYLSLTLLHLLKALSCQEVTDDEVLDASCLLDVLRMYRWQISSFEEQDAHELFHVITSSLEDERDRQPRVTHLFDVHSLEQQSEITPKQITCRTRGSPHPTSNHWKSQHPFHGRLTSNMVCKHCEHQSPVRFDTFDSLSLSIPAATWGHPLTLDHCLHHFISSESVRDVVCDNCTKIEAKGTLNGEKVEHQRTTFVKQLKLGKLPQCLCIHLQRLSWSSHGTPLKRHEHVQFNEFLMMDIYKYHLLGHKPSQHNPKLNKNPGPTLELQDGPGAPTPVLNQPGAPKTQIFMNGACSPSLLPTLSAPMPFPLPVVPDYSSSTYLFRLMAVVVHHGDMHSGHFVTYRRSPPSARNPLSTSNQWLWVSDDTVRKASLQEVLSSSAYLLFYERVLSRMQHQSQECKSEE
Kind of assay: Biochemical Assay. The method, then: Dilution plates were prepared at 21 times the final concentration (2100 μM for a final concentration of 100 μM) in 50% DMSO in a 96-well polypropylene V-bottom plate (Greiner #651201). A typical 8-point dilution series to be 100, 30, 10, 3, 1, 0.3, 0.1, 0.03 μM final. Reactions were performed in duplicate in black 384 well plates (small volume, Greiner 784076) in a final reaction volume of 21 μl. Either 1 μl of 50% DMSO or diluted compound was added to the plate. USP30 was diluted in reaction buffer (40 mM Tris, pH 7.5, 0.005% Tween 20, 0.5 mg/ml BSA, 5 mM beta-mercaptoethanol) to the equivalent of 0.05 μl/well and 10 μl of diluted USP30 was added to the compound. Enzyme and compound were incubated for 30 min at room temp. Reactions were initiated by the addition of 50 nM of TAMRA labelled peptide linked to ubiquitin via an iso-peptide bond as fluorescence polarisation substrate. Reactions were read immediately after addition of substrate and following a 2 hr incubation at room temperature. Readings were performed on a Pherastar Plus (BMG Labtech). λ Excitation 540 nm; λ Emission 590 nm.

Broadly, the IC50 is the concentration needed to halve the response being measured. A low value points to inhibition by little substance.

Regarding `N#CN1CC[C@H](CNC(=O)c2ncc(-c3ccccc3)s2)C1` [US11130748, Example 61], the IC50 result is “in the range around 550 nM”.

Source of the values: BindingDB's records for patent US11130748 (Mission Therapeutics, 2021).
